The values that follow come from patent US9415011B1, “Method for treatment of liver cancer and inhibition of metastasis with CXC-chemokine-receptor 4-targeted nanoparticle” (National Tsing Hua University, priority 2015, dated 2016).

Data set [1] relates to HCA-1 cells. The data set is described as follows: Cell viability under sorafenib with recombinant SDF1α. The data set is classed as cell-based, murine. Particulars: HCA-1, in the presence of sorafenib. The source says: (§1) To examine cell viability, cells without any treatment were defined as Negative control group, while cells treated with free sorafenib alone were defined as Positive control group. Meanwhile, cells treated with sorafenib in the presence of recombinant SDF1α were defined as Comparative group 1, while cells treated with free sorafenib and free AMD3100 were defined as Comparative group 2. Regarding the experimental groups, cells treated with sorafenib-loaded lipid-coated nanoparticle without AMD3100 modification were defined as Experimental group 1, while cells treated with sorafenib-loaded AMD3100-modified lipid-coated nanoparticle were defined as Experimental group 2.
(§2) To determine whether the SDF1α/CXCR4 axis mediates HCC resistance to sorafenib treatment, both murine HCC (HCA-1) and human HCC (JHH-7) cell lines were firstly exposed to recombinant SDF1α in the presence of sorafenib.

For data set [2], the system named is JHH-7 cells. The data set is described as above. The class given is cell-based, human. Particulars: JHH-7, in the presence of sorafenib.
Text: as §1, §2

The nature of data set [3]: In vivo pharmacokinetics of C6 in blood. Also on record: species or system C3H mice. Particulars: 2 mg/kg, mice with orthotopic HCA-1 tumor. The method, then:
To examine the pharmacokinetics profile in vivo, firstly, C6-loaded lipid-coated PLGA nanoparticle without AMD3100 modification (DOP-C6) and C6-loaded AMD3100-modified lipid-coated PLGA nanoparticle (ADOP-C6) were prepared according to the method set forth above. Then, C3H mice with orthotopic HCA-1 tumor were administered with free C6, DOP-C6 and ADOP-C6 at a dosage of 2 mg/kg. 40 μl of blood was collected from the tail artery and mixed with 10 μL of EDTA (50 mM) at different periods of time. The fluorescence intensity was measured by the plate reader (Fluoroskan Ascent FL, Thermo Scientific) at an excitation wavelength of 485 nm and an emission wavelength of 538 nm C6 concentration was normalized and calculated from a standard curve obtained by spiking known amounts of free C6 or C6-loaded nanoparticles in blood obtained from uninjected mice.

Data set [4] has as its system VEGF. The data set is described as follows: VEGF expression by western blot. The class given is cell-based, murine. Particulars: HCA-1. An excerpt:
(§3) Firstly, cells treated with free control siRNA were defined as Control group, while cells treated with free anti-VEGF siRNA were defined as Comparative group. Cells treated with anti-VEGF siRNA-loaded lipid-coated nanoparticle without AMD3100 modification were defined as Experimental group 1, while cells treated with anti-VEGF siRNA-loaded AMD3100-modified lipid-coated nanoparticle were defined as Experimental group 2.

The test system of data set [5] is VEGF. The data set is described as follows: VEGF expression by western blot. Particulars: JHH-7. The class given is cell-based, human.
Text: as §3
For orientation: Immunoblotting shows a protein as a band on a membrane.

For data set [6], the system named is orthotopic HCA-1 tumor. The data set is described as follows: In vivo tumor uptake of fluorescence-labeled siRNA. Particulars: intravenous injection, after 4 hours. Details: species or system mice. The method, then:
Next, the uptake of the fluorescence-labeled siRNA in orthotopic HCA-1 tumor models via intravenous injection was evaluated after 4 hours.

The test system of data set [7] is HCA-1 cells. The experiment in a line: In vitro cytotoxicity, MTT assay. The data set is classed as cell-based, murine. Particulars: HCA-1, 48 hours, sorafenib 0.25 μM, AMD3100 0.2 μM. The method, then:
(§4) For cytotoxicity examination of the CXCR4-targeted lipid-coated PLGA nanoparticle of the present invention, HCA-1 or JHH-7 cells were seeded in 96-well transparent plates (Costar, Ill., USA) at a density of 1000 cells/well in a medium and were incubated for 12 hours. After confluency reached 10%, the medium was replaced with RPMI-1640 media containing DOPSor, ADOPSor, free DOPA, ADOP, or DOPSor with free AMD3100 at the equivalent sorafenib concentration of 0.25 μM. […] All cells were incubated for 48 hours. After incubation for another 3 hours, MTT assay was utilized to subsequently measure the cell viability. The absorbance of the wells was measured by Multiskan (Thermo, USA) at 570 nm and background absorbance was subtracted from all data. The percentage of cell viability was calculated by normalization of all values to the control group.

For data set [8], the system named is JHH-7 cells. The data set is described as follows: In vitro cytotoxicity, MTT assay. Particulars: JHH-7, 48 hours, sorafenib 0.25 μM, AMD3100 0.2 μM. The data set is classed as cell-based, human. The method, then:
as §4
Background: Tetrazolium dyes change colour on reduction, which living cells bring about.

In data set [9] the test system is orthotopic HCA-1 tumor. The data set is described as follows: Syngeneic orthotopic murine HCC model, sorafenib and AMD3100-modified nanoparticle. The data set is classed as in vivo, C3H mice. Particulars: sorafenib 50 mg/kg daily for 14 days. An excerpt:
4 to 6-week-old male C3H/HeNCrNarl mice (weight: 25 g) were purchased from National Laboratory Animal Center (Taipei, Taiwan). In order to create hepatocellular carcinoma model, every mouse was orthotopically injected with HCA-1 cells (10^6 cells per mouse) in liver.
On the other hand, HCA-1 cells were intrahepatic ally implanted into C3H mice to establish a syngeneic orthotopic murine HCC model. For evaluation of mean vessel density (MVD) and hypoxic induction, mice without any treatment were defined as Negative control group, while mice treated with free sorafenib alone were defined as Positive control group. Mice treated with free sorafenib and free AMD3100 were defined as Comparative. For the experimental groups, mice treated with AMD3100-modified lipid-coated nanoparticle of the present invention were defined as Experimental group 1, while mice treated with sorafenib and AMD3100-modified lipid-coated nanoparticle of the present invention together were defined as Experimental group 2.
After HCC tumors were established, mice were treated according to the above mentioned Positive control group, Comparative group, Experimental group 1, and Experimental group 2 with sorafenib given at a dose of 50 mg/kg daily for 14 days. […] On the other hand, the change in SDF1α expression as a consequence of treatment-induced hypoxia was examined.

Turning to SDF1α, the cell viability entry in data set [1] and in data set [2] was “increased the viability” throughout.

In the case of `CCN(CC)c1ccc2cc(-c3nc4ccccc4s3)c(=O)oc2c1` [free C6, coumarin 6], in [3], the “C6 in blood after 1 hour” value is “cleared rapidly from the blood after 1 hour” and the “C6 in blood after 4 hours” value was “almost cleared out after 4 hours”.

With “free anti-VEGF siRNA: anti-VEGF siRNA with sequence 5′-AUGUGAAUGCAGACCAAAGAA-3′ (chemistry not given here)”, the VEGF expression entry in [4] and in data set [5] was “no suppression of VEGF expression” in each case. Further, the “uptake of fluorescence-labeled siRNA in orthotopic HCA-1 tumor” value in [6] is recorded as “intracellular uptake can hardly be detected”.

On to `c1cc(CN2CCCNCCNCCCNCC2)ccc1CN1CCCNCCNCCCNCC1` [AMD3100], for which the “cytotoxicity / cell viability” value in data set [7] and in data set [8] was “did not have a cytotoxic effect” each time.

For `CNC(=O)c1cc(Oc2ccc(NC(=O)Nc3ccc(Cl)c(C(F)(F)F)c3)cc2)ccn1` [sorafenib, Sorafenib], in data set [9], the “carbonic anhydrase IX (CAIX) expression (hypoxia)” value was “increase of carbonic anhydrase IX (CAIX) expression”, the “increase in SDF1α expression in HCA-1 tumor tissues” value worked out at 3 fold, the “increase in number of F4/80+ macrophages” value was “over 3 fold” and the lung metastasis result is on record as “Neither the Positive control group nor the Comparative group showed a reduction in metastasis formation”. In [9], the “mean vessel density (MVD)” value was “significant reduction of MVD” and the tumor growth entry is given as “moderate tumor growth inhibitory effect”.
